Measurements: patent US12427192B2, “Water soluble adjuvant and composition containing same” (Sumitomo Pharma Co., Ltd., priority 2019, dated 2025)

Tests used:
[1] = target: T1, human TLR7 (Homo sapiens, UniProt Q9NYK1); test: Human TLR7 reporter gene assay (TLR7/NF-κB/SEAPorter HEK293 cell line), Tests 1 and 21; assay type: cell-based
T1 construct: expresses full-length human TLR7 and secretory alkaline phosphatase (SEAP) reporter gene; host or cells: HEK293 (TLR7/NF-κB/SEAPorter)
T1 sequence (Q9NYK1 27-1049): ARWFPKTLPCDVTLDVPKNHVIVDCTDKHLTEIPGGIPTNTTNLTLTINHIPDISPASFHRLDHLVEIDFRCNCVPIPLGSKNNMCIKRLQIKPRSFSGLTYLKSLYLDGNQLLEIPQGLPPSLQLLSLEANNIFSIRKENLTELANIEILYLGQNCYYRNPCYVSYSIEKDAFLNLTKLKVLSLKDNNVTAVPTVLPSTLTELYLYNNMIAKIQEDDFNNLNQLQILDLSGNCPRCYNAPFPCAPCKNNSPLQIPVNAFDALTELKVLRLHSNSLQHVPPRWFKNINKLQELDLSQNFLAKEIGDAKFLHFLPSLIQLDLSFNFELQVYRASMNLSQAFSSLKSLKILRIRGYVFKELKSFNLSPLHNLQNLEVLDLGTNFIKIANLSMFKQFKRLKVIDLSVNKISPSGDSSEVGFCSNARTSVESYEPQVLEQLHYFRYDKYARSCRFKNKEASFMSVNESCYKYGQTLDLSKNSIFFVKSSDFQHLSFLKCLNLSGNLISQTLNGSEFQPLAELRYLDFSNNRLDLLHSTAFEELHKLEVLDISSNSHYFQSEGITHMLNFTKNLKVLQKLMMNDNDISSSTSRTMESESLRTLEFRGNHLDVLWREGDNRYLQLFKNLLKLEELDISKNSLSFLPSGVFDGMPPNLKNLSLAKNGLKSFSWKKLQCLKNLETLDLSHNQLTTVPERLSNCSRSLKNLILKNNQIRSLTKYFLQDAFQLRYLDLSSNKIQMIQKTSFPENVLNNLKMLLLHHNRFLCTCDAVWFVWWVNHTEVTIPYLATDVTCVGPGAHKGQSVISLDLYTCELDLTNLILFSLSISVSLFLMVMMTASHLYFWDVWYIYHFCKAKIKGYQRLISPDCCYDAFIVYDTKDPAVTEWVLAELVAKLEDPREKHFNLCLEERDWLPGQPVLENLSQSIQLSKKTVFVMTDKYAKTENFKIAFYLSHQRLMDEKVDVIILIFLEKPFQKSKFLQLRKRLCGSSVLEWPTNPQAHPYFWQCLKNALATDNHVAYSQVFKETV
Description: Human TLR7 Reporter Gene Assay
(§1) TLR7/NF-κB/SEAPorter™ HEK293 cell line (Imgenex Corporation) is a stably co-transfected cell line which expresses full-length human TLR7 and secretory alkaline phosphatase (SEAP) reporter gene under the transcriptional regulation of an NF-κB response element. The TLR7 expression of the cell line has been already tested by flow cytometry. Transfectants with stable expression were selected using the antibiotic blasticidin and Geneticin. TLR signaling leads to the translocation of NF-κB and the activation of the promoter results in expression of the SEAP gene. TLR7-specific activation was assessed by determining the level of SEAP produced following 24-hour incubation of the cells at 37° C. with each compound prepared in Examples and Reference examples in the presence of 0.1% (v/v) dimethylsulfoxide (DMSO). The human TLR7 activity for the present compound was assessed by human TLR7 reporter gene assay, and the results are shown in Tables 3 and 4 as the compound concentration which produced half of the maximal level of SEAP induction (EC50)
According to the method of Test 1, human TLR7 reporter gene assay was done with the following samples, and the result was shown in the table below.

[2] = test system: HLA-A*02:01 transgenic mouse; test: Test 9: in vivo adjuvant activity, cocktail vaccine b, IFNγ ELISPOT; conditions: added to cocktail vaccine b; Peptide SEQ ID No. 1 or SEQ ID No. 4; 0.4 nmol per body, twice; FIG. 6 and 7
Method: Evaluation of In Vivo Adjuvant Activity in HLA-A*02:01 Transgenic Mouse
The in vivo adjuvant activity of the compounds prepared in Examples 8, 9, and 10 and the compound prepared in Reference example 12 was evaluated in the following procedure. To cocktail vaccine b comprising Compound of formula 4 prepared in Reference example 8 and Peptide SEQ ID No. 3 prepared in Reference example 3 with Montanide ISA51 VG was added the compound prepared in Example 8, 9, or 10, or the compound prepared in Reference example 12 to prepare each vaccine. The vaccine was administered to a HLA-A*02:01 transgenic mouse, and the adjuvant activity of each vaccine was evaluated by the method of testing antigen-specific CTL induction.
Specifically, Compound of formula 4 and Peptide SEQ ID No. 3 were dissolved in DMSO, and then diluted with water for injection to concentrations of Compound of formula 4 of 3 mg/mL and Peptide SEQ ID No. 3 of 2.25 mg/mL. The diluted peptide solution was mixed and emulsified with an equal volume of Montanide ISA 51 VG to prepare cocktail vaccine b. Cocktail vaccine b was injected to mice intradermally at the tail base area in an amount for administering 300 μg of Compound of formula 4 per body and 225 μg of Peptide SEQ ID No. 3 per body. Or, in the step of preparing cocktail vaccine b, the compound prepared in Example 8, 9, or 10, or the compound prepared in Reference example 12 was added to the diluted peptide solution to prepare a vaccine, and the prepared vaccine was injected to mice intradermally at the tail base area in an amount for administering 300 μg of Compound of formula 4 per body, 225 μg of Peptide SEQ ID No. 3 per body, and 0.4 nmol of the compound prepared in Example 8, 9, or 10, or the compound prepared in Reference example 12 per body. The administrations were done twice, which had one week interval. One week after the final administration, the mice were sacrificed with CO2 gas. Splenocytes were harvested from spleens removed from the mice. Like Test 4, Peptide (SEQ ID No. 1 or SEQ ID No. 4) was added to the splenocyte-containing ELISPOT plate at a final concentration of 10 μg/ml, and the plate was incubated overnight at 37° C. under an atmosphere of 5% CO2 to re-stimulate the peptide in vitro. Then, after removal of the supernatant from the wells, stained spots on the ELISPOT plate were counted.

[3] = target: T1, human TLR7; test: Human TLR7 reporter gene assay (HEK-Blue hTLR7 cell line), Test 22; assay type: cell-based; conditions: method of Test 1
Description: as §1
According to the method of Test 1, human TLR7 reporter gene assay was done with the following samples, and the result was shown in the table below. The cell used herein was HEK-Blue™ hTLR7 cell line (Invivogen). HEK-Blue™ hTLR7 cell line is a stably co-transfected cell line which expresses full-length human TLR7 and secretory SEAP reporter gene under the transcriptional regulation of an NF-κB response element. The TLR7 expression of the cell line has been already tested by RT-PCR. Transfectants with stable expression were selected using the antibiotic blasticidin and Zeocin.

[4] = target: T2, mouse TLR7 (Mus musculus, UniProt P58681); test: Mouse TLR7 reporter gene assay (HEK-Blue mTLR7 cell line), Test 2; assay type: cell-based; conditions: half of maximal SEAP induction, 20-24-hour incubation, 0.1% DMSO
T2 construct: expresses full-length mouse TLR7 and secretory SEAP reporter gene; host or cells: HEK-Blue mTLR7 (HEK293-derived)
T2 sequence (P58681 27-1050): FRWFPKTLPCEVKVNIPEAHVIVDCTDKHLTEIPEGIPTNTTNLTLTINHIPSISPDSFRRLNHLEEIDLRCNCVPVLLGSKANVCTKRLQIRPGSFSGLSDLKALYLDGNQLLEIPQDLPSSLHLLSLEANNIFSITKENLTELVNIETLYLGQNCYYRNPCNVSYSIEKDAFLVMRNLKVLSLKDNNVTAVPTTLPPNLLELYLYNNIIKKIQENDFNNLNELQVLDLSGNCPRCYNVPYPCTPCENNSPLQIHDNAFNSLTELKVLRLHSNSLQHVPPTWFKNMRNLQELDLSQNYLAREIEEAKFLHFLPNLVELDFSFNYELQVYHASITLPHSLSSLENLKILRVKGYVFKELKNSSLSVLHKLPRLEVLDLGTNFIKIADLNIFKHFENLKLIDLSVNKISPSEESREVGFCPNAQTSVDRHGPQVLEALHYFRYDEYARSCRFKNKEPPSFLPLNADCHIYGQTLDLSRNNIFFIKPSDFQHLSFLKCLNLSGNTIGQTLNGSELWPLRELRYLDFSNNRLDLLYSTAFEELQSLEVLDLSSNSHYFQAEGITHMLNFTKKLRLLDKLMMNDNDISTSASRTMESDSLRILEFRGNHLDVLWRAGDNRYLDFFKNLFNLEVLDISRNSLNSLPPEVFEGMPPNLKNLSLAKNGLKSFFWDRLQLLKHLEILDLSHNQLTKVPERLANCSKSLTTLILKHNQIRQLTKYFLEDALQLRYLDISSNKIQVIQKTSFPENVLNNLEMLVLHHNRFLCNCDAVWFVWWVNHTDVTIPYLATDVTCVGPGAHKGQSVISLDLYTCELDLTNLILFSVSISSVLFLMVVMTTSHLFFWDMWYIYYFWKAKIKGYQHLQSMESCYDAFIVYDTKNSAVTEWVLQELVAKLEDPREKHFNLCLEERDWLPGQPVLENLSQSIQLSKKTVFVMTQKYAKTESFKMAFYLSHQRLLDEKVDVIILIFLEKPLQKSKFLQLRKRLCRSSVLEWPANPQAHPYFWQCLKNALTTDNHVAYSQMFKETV
Description: Test 2 Mouse TLR7 Reporter Gene Assay
HEK-Blue™ mTLR7 cell line (Invivogen) is a stably co-transfected cell line which expresses full-length mouse TLR7 and secretory SEAP reporter gene under the transcriptional regulation of an NF-κB response element. The TLR7 expression of the cell line has been already tested by RT-PCR. Transfectants with stable expression were selected using the antibiotic blasticidin and Zeocin. TLR signaling leads to the translocation of NF-κB and the activation of the promoter results in expression of the SEAP gene. TLR7-specific activation was assessed by determining the level of SEAP produced following 20-24-hour incubation of the cells at 37° C. with each compound prepared in Examples and Reference examples in the presence of 0.1% (v/v) DMSO. The mouse TLR7 activity for the present compound was assessed by mouse TLR7 reporter gene assay, and the results are shown in Tables 5 and 6 as the compound concentration which produced half of the maximal level of SEAP induction (EC50).

[5] = Test 21, according to the method of Test 1, read-out: human EC50
[6] = Test 1, TLR7/NF-κB/SEAPorter HEK293 cell line, half of maximal SEAP induction, 24-hour incubation, 0.1% DMSO, read-out: EC50

For `CCCCCNc1nc(N)nc(C)c1Cc1ccc(CN(C)CCOCCOCCOCCOCCOCCOCCOCCOCCOCCO)cc1OC` [Example 8, 1-(4-{[2-amino-4-methyl-6-(pentylamino)pyrimidin-5-yl]methyl}-3-methoxyphenyl)-2-methyl-5,8,11,14,17,20,23,26,29-nonaoxa-2-azahentriacontan-31-ol], the EC50 [1, 5] was 0.388 µM, the “CTL counts responsive to the peptide compared with Reference example 12” value [2] was “more” and the “CTL counts responsive to the peptide compared with adding no compound” value [2] was “more”.
In the case of `CCCCCNc1nc(N)nc(C)c1Cc1ccc(CN(C)CCOCCOCCOCCOCCOCCOCCOCCOCCOCCOCCOCCOCCOCCOCCOCCOCCOCCOCCOCCOCCOCCOCCOCCOCCOCCOCCOCCOCCOCCOCCOCCOCCOCCOCCOCCO)cc1OC` [Example 10, 1-(4-{[2-amino-4-methyl-6-(pentylamino)pyrimidin-5-yl]methyl}-3-methoxyphenyl)-2-methyl-5,8,11,14,17,20,23,26,29,32,35,38,41,44,47,50,53,56,59,62,65,68,71,74,77,80,83,86,89,92,95,98,101,104,107-pentatriacontaoxa-2-azanonahectan-109-ol], the EC50 [1, 5] is reported as 3.81 µM.
With `CCC[C@@H](CO)Nc1nc(N)nc(C)c1Cc1ccc(C(=O)NCCOCCOCCOCCOCCOCCOCCO)cc1OC` [Example 5, 4-[(2-amino-4-{[(2S)-1-hydroxypentan-2-yl]amino}-6-methylpyrimidin-5-1)methyl]-N-(20-hydroxy-3,6,9,12,15,18-hexaoxaicosan-1-yl)-3-methoxybenzamide] the EC50 [3] was 7.27 µM.
`CCC[C@@H](CCO)Nc1nc(N)nc(C)c1Cc1ccc(CN(C)CCOCCOCCOCCOCCO)cc1OC` [Example 2, 1-{4-[(2-amino-4-{[(3S)-1-hydroxyhexan-3-yl]amino}-6-methylpyrimidin-5-yl)methyl]-3-methoxyphenyl}-2-methyl-5,8,11,14-tetraoxa-2-azahexadecan-16-ol-trifluoroacetate] was tested, and the EC50 [1, 6] was 0.094 µM and the EC50 [4] was 0.021 µM.
For `CCCCCNc1nc(N)nc(C)c1Cc1ccc(CN(C)CCOCCOCCOCCOCCOCCOCCOCCOCCOCCOCCOCCOCCOCCOCCOCCOCCOCCOCCOCCOCCOCCOCCOCCO)cc1OC` [Example 9, 1-(4-{[2-amino-4-methyl-6-(pentylamino)pyrimidin-5-yl]methyl}-3-methoxyphenyl)-2-methyl-5,8,11,14,17,20,23,26,29,32,35,38,41,44,47,50,53,56,59,62,65,68,71-tricosaoxa-2-azatriheptacontan-73-ol], the EC50 [1, 5] was 3.99 µM, the “CTL counts responsive to the peptide compared with Reference example 12” value [2] was “more” and the “CTL counts responsive to the peptide compared with adding no compound” value [2] was “more”.
For `CCC[C@@H](CCO)Nc1nc(N)nc(C)c1Cc1ccc(CNC)cc1OC` [compound 11, (3S)-3-{[2-amino-5-({2-methoxy-4-[(methylamino)methyl]phenyl}methyl)-6-methylpyrimidin-4-yl]amino}hexan-1-ol, reference compound], the EC50 [1, 6] was 0.008 µM and the EC50 [4] was 0.002 µM.
`CCCCCNc1nc(N)nc(C)c1Cc1cc(CN(C)CCOCCOCCOCCOCCO)ccc1OC` [Example 3, 1-(3-{[2-amino-4-methyl-6-(pentylamino)pyrimidin-5-yl]methyl}-4-methoxyphenyl)-2-methyl-5,8,11,14-tetraoxa-2-azahexadecan-16-ol-trifluoroacetate] showed an EC50 [1, 5] of 0.637 µM.
